Experimental data reported in US12628822B2, “Plant pathogen defence elicitors” (UNIVERSITÉ LIBRE DE BRUXELLES, priority 2020, dated 2026).

System: Arabidopsis transcriptome
Test: cDNA microarray analysis of early transcriptomic changes in Arabidopsis seedlings
Assay type: in vivo, Arabidopsis thaliana
Description: Arabidopsis thaliana Columbia (Col-0) was the accession used for all the experiments. Seeds were surface sterilised by subsequent treatment with 50% v/v Et-OH and 3% bleach solution in agitation for 5 and 10 min, respectively. Seeds were then washed three times with distilled water and stratified for 3 days at 4° C. in the dark. For qPCR analysis and microarray experiments, seeds were sown on square petri dishes ([…]) containing half strength Murashige and Skoog (MS) salt, 2.5 mM MES, 1% w/v sucrose and 0.8% w/v plant agar. The experiments were performed using 14-day old seedlings grown vertically in a controlled growth cabinet with short day conditions ( 8/16 h light/dark; 100 μmol photons m^−2 s^−1) at 22±0.5° C. Treatments were performed by applying 40-50 μl of fresh-prepared and filtered solution per seedling.
For RNA extraction, 14-day old leaves from ten independent plants were collected at the indicated time point after treatments, pooled and frozen in liquid nitrogen. Total RNA was extracted from 100 mg of ground-frozen samples using the Maxwell® LEV Plant RNA Kit (Promega, Madison, WI, USA) and the RNA integrity was determined through NanoDrop 2000 UV-Vis Spectrophotometer (Thermo Scientific, Loughborough, UK). First-strand cDNA was synthesized by using SOLIScript® RT cDNA synthesis MIX (Solis Biodyne, Tartu, Estonia) and qPCRs were performed using SYBR® Selected MasterMix 2× (Applied Biosystems, Thermo Fisher Scientific, Waltham, USA), following the manufacturers' protocols. The cycling conditions consisted of an initial 7 min at 95° C., followed by 40 two-step cycles at 95° C. for 5 s and at 60° C. for 30 s. Melting curve analysis was performed after cycle completion to validate amplicon identity. Relative expression levels were calculated following the standard curve-based method (Larionov et al. A standard curve based method for relative real time PCR data processing, BMC Bioinformatics. 2005, vol. 6, 1) by using ACTIN as reference. Gene-specific primers used in this work are indicated below.
RNA sample preparation for microarray hybridization was carried out as described in the Applied Biosystems™ GeneChip™ Whole Transcript (WT) PLUS Reagent Kit User Guide (Thermo Fisher Scientific, Waltham, MA, USA). Briefly, 200 ng of total RNA was used to generate double-stranded cDNA. Twelve μg of subsequently synthesized cRNA were purified and reverse transcribed into single-stranded (ss)cDNA, where unnatural dUTP residues were incorporated. Purified and labelled sscDNAs were hybridised to Arabidopsis Gene 1.0 ST arrays (Affymetrix, Santa Clara, CA, USA) and the fluorescent signals were measured with an Applied Biosystems™ GeneChip Scanner 3000 7 G System. Sample processing was performed at a Genomics Core Facility, “KFB—Center of Excellence for Fluorescent Bioanalytics” (Regensburg, Germany).
Normalised probe set signals in log2 scale were calculated by using the RMA algorithm. Average linkage hierarchical clusters of differentially expressed genes were generated by using Cluster 3.0 and visualized by java TreeView.
In Arabidopsis, the DAMPs-dependent elicitation of PTI is known to be accompanied by a deep immune gene transcriptional reprogramming. […] The transcriptomic analysis was carried out by using Arabidopsis 1.0 ST microarray chip (Affymetrix, Santa Clara, CA, USA) and Differentially Expressed Genes (DEGs) were selected using two criteria: log2 expression ratios ≥1.5-fold or […] and Student's t-test p-value≤0.05.

[1] = 100 μM, 1 h, Col-0 plants, vs control

AT4G22710 cytochrome P450, family 706, subfamily A, polypeptide 2 gene expression [1]: 1.15 fold change | AT5G57220 cytochrome P450, family 81, subfamily F, polypeptide 2 gene expression [1]: 1.07 fold change
Compound: OC[C@H]1O[C@@H](O[C@H]2[C@H](O)[C@@H](O)[C@H](O)O[C@@H]2CO)[C@H](O)[C@@H](O)[C@@H]1O [Cellobiose, β-D-glucopyranosyl(1→4)D-glucopyranose]
AT3G46280 protein kinase-like protein gene expression [1]: 4.51 fold change | AT3G51910 heat stress transcription factor A-7a gene expression [1]: 1.35 fold change | AT3G54420 chitinase class IV gene expression [1]: 1.74 fold change | AT4G01750 rhamnogalacturonan xylosyltransferase 2 gene expression [1]: 2.59 fold change | AT4G11890 receptor-like cytosolic kinase ARCK1 gene expression [1]: 1.75 fold change | AT4G12400 carboxylate clamp-tetratricopeptide repeat protein gene expression [1]: 3.23 fold change | AT4G15233 ABC transporter G family member 42 gene expression [1]: 1.66 fold change | AT4G21120 amino acid transporter 1 gene expression [1]: 1.07 fold change | AT4G22470 protease inhibitor/seed storage/lipid transfer protein (LTP) family protein gene expression [1]: 1.77 fold change | AT4G23220 cysteine-rich receptor-like protein kinase 14 gene expression [1]: 1.69 fold change | AT4G23280 putative cysteine-rich receptor-like protein kinase 20 gene expression [1]: 1.14 fold change | AT4G23570 phosphatase SGT1a gene expression [1]: 2.22 fold change | AT4G25110 metacaspase 2 gene expression [1]: 1.74 fold change | AT4G26200 1-aminocyclopropane-1-carboxylate synthase 7 gene expression [1]: 2.14 fold change | AT4G27280 EF-hand, calcium binding motif-containing protein gene expression [1]: 1.33 fold change | AT4G38550 phospholipase like protein (PEARLI 4) family gene expression [1]: 1.60 fold change | AT5G05300 hypothetical protein gene expression [1]: 1.78 fold change | AT5G10695 hypothetical protein gene expression [1]: 2.27 fold change | AT5G14470 GHMP kinase family protein gene expression [1]: 1.21 fold change | AT5G15870 glycosyl hydrolase family 81 protein gene expression [1]: 1.14 fold change | AT5G19230 GPI-anchored glycoprotein membrane precursor gene expression [1]: 1.24 fold change | AT5G35320 hypothetical protein gene expression [1]: 1.02 fold change | AT5G37600 glutamine synthetase 1; 1 gene expression [1]: 1.56 fold change | AT5G37670 heat shock protein 15.7 gene expression [1]: 1.04 fold change | AT5G39020 putative receptor-like protein kinase gene expression [1]: 1.02 fold change | AT5G39580 peroxidase 62 gene expression [1]: 3.82 fold change | AT5G44070 glutathione gamma-glutamylcysteinyltransferase 1 gene expression [1]: 1.44 fold change | AT5G44585 hypothetical protein gene expression [1]: 2.20 fold change | AT5G44910 Toll-Interleukin-Resistance domain-containing protein gene expression [1]: 1.10 fold change | AT5G46050 peptide transporter 3 gene expression [1]: 1.74 fold change | AT5G48530 hypothetical protein gene expression [1]: 2.07 fold change | AT5G48540 receptor-like protein kinase-related family protein gene expression [1]: 1.85 fold change | AT5G48570 peptidyl-prolyl cis-trans isomerase FKBP65 gene expression [1]: 3.39 fold change | AT5G51440 heat shock protein 23.5 gene expression [1]: 1.36 fold change | AT5G52640 heat shock protein 90.1 gene expression [1]: 3.70 fold change | AT5G62020 heat stress transcription factor B-2a gene expression [1]: 1.00 fold change | AT5G64120 peroxidase 71 gene expression [1]: 1.42 fold change | AT5G67450 zinc-finger protein 1 gene expression [1]: 1.44 fold change | MYB51 (AT1G18570) Expression (100 μM, 1 h, microarray): 1.46 Fold change (treatment/CTR) | MYB73 (AT4G37260) Expression (100 μM, 1 h, microarray): 1.06 Fold change (treatment/CTR) | NAC047 (AT3G04070) Expression (100 μM, 1 h, microarray): 1.81 Fold change (treatment/CTR) | NAC055 (AT3G15500) Expression (100 μM, 1 h, microarray): 1.20 Fold change (treatment/CTR) | NAC057 (AT3G17730) Expression (100 μM, 1 h, microarray): 1.40 Fold change (treatment/CTR) | NAC058 (AT3G18400) Expression (100 μM, 1 h, microarray): 1.41 Fold change (treatment/CTR) | NAC078 (AT5G04410) Expression (100 μM, 1 h, microarray): 1.31 Fold change (treatment/CTR) | Target of MYB protein 1 (AT1G76970) Expression (100 μM, 1 h, microarray): 1.64 Fold change (treatment/CTR) | WRKY11 (AT4G31550) Expression (100 μM, 1 h, microarray): 1.95 Fold change (treatment/CTR) | WRKY15 (AT2G23320) Expression (100 μM, 1 h, microarray): −1.06 Fold change (treatment/CTR) | WRKY18 (AT4G31800) Expression (100 μM, 1 h, microarray): 4.02 Fold change (treatment/CTR) | WRKY22 (AT4G01250) Expression (100 μM, 1 h, microarray): 2.34 Fold change (treatment/CTR) | WRKY30 (AT5G24110) Expression (100 μM, 1 h, microarray): 1.30 Fold change (treatment/CTR) | WRKY33 (AT2G38470) Expression (100 μM, 1 h, microarray): 1.33 Fold change (treatment/CTR) | WRKY40 (AT1G80840) Expression (100 μM, 1 h, microarray): −1.05 Fold change (treatment/CTR) | WRKY61 (AT1G18860) Expression (100 μM, 1 h, microarray): −1.05 Fold change (treatment/CTR) | WRKY72 (AT5G15130) Expression (100 μM, 1 h, microarray): 1.41 Fold change (treatment/CTR) | LOX4 (AT1G72520) gene expression, Microarray (vs CTR): 1.68 fold change | MPK3 (AT3G45640) gene expression, Microarray (vs CTR): 1.22 fold change | MPK6 (AT2G43790) gene expression, Microarray (vs CTR): −1.06 fold change | PAD3 (AT3G26830) gene expression, Microarray (vs CTR): −1.04 fold change | PEN3 (AT1G59870) gene expression, Microarray (vs CTR): 1.55 fold change | PR1 (AT2G14610) gene expression, Microarray (vs CTR): 1.91 fold change | WRKY18 (AT4G31800) gene expression, Microarray (vs CTR): 4.02 fold change | WRKY22 (AT4G01250) gene expression, Microarray (vs CTR): 2.34 fold change | WRKY33 (AT2G38470) gene expression, Microarray (vs CTR): 1.33 fold change | IGMT2 (At1G21120) gene expression, Microarray (vs mock): −1.14 fold change
